The subject of series [1] is mice with chronic HFD-induced obesity. The series can be described thus: Chronic HFD-induced obesity model, Compound I-1 versus CFD switch (FIG. 8). The format is in vivo, mouse. The source says:
Details regarding treatment times and controls are shown in panel (a). Panels b-e show lymph “leakage” into surrounding VAT due to HFD-induced remodelling of the mesenteric lymphatics, as measured by intramucosal injection of Evans blue dye and lymphangiography. (f-g) n=2 (CFD), 7 (HFD), 8 (Cele-pro (CP30)) and 5 (CFD switch).

The nature of series [2]: Systemic (plasma) exposure of celecoxib after oral gavage. The class given is in vivo, mouse. Conditions: oral gavage 29 mg/kg in lipid based formulation (Compound I-1 equivalent to 8.3 mg/kg celecoxib), fasted mice. The method, then: To evaluate the systemic exposure of celecoxib and celecoxib prodrug Compound I-1, 29 mg/kg celecoxib or celecoxib prodrug (equivalent to 8.3 mg/kg celecoxib) were administered in a self-emulsifying lipid-based formulation consisting of oleic acid (Sigma Aldrich, Australia)/Cremophor RH40 (Sigma Aldrich, Australia)/ethanol (40:52.6:7.4, w/w/w). Drug and prodrug concentrations in the formulations were confirmed using HPLC-MS/MS as described below.
In addition to evaluating lymph uptake of celecoxib and celecoxib prodrug, a pharmacokinetic dose-determining study was conducted to determine a dose of celecoxib and celecoxib prodrug that produce higher lymphatic uptake but lower systemic plasma celecoxib exposure (i.e. lower plasma concentrations over time) after administration of the prodrug. […]
For HPLC-MS/MS analysis of celecoxib in plasma after dosing celecoxib or celecoxib prodrug Compound I-1, 200 μL acetonitrile was added to 20 μL samples of plasma and 5 μL of a 1 μg/mL solution of internal standard (5,5-diethyl-1,3-diphenyl-2-iminobarbituric acid) in acetonitrile. Samples were vortexed for 30 seconds and centrifuged at 4,500 g for 5 min, and 80 μL supernatant was analyzed for celecoxib concentration by HPLC-MS. […]

The mark [3] stands for this setting: chronic HFD-induced obesity models, Cele-pro (CP30).

For the molecule `CCCCCCCCCCCCCCCC(=O)OCC(COC(=O)CCCCCCCCCCCCCCC)OC(=O)CCCCCCCCC(=O)Oc1cc(C)cc(C)c1C(C)(C)CC(=O)NS(=O)(=O)c1ccc(-n2nc(C(F)(F)F)cc2-c2ccc(C)cc2)cc1` [Compound I-1], the “effects on mice on a high-fat diet relative to animals switched to a chow-fat diet” value in series [1] (Cele-pro (CP30) versus CFD switch) was “comparable”. Besides, in series [1] (setting [3]), the VAT inflammation result is “reverses”, the insulin resistance entry was “reverses” and the lymphatic dysfunction result is “reverses”. For the same molecule, the “plasma concentrations of celecoxib, compared to an equal mass of the parent drug” value in series [2] is recorded as “lower”.

The record behind these values is patent US12611415B2, “Methods and compounds for treatment of metabolic disease” (Monash University, priority 2019, dated 2026).
